# Measured values as given in article PMC4627656, “Combining Metabolite-Based Pharmacophores with Bayesian Machine Learning Models for Mycobacterium tuberculosis Drug Discovery” (PLoS ONE, 2015).
# Like-named read-outs stand apart in the source and are kept apart here.
# Legend:
# in vitro [1] = settings: African green monkey
# Mtb H37Rv strain = experiment: Resazurin (Alamar Blue) MIC assay against replicating Mtb; assay type: cell-based, Mycobacterium tuberculosis; settings: for MIC: Mycobacterium tuberculosis, H37RV
# in vitro [2] = settings: human, Caco-2
# physchem = assay type: physicochemical; settings: 37 °C, pH 7.4, aqueous buffer, kinetic from dmso stock
# Protocol: Serial dilutions of the test agent were prepared in DMSO at 100x the final concentration. Test article solutions were diluted 100-fold into pH 7.4 phosphate-buffer saline (PBS) in a 96-well plate and mixed. After 2 h at 37°C, the presence of precipitate was detected by turbidity (absorbance at 540 nm). An absorbance value of greater than ‘mean + 3x standard deviation of the blank’ (after subtracting the background) was indicative of turbidity. For brightly colored compounds, a visual inspection of the plate was performed to verify the solubility limit determined by UV absorbance. The solubility limit was reported as the highest experimental concentration with no evidence of turbidity.
# [3] = mouse, microsomes, pH 7.4
# Protocol: The test agent was incubated in duplicate with mouse liver microsomes at 37°C. The reaction contained microsomal protein in 100 mM K3PO4, 2 mM NADPH, and 3 mM MgCl2 at pH 7.4. A control was run for each test agent omitting NADPH to detect NADPH-free degradation. At t = 0 and 60 min, an aliquot was removed from each experimental and control reaction and mixed with an equal volume of ice-cold Stop Solution (methanol containing propranolol as an internal standard). Stopped reactions were incubated at least ten min at -20°C, and an additional volume of water was added. The samples were centrifuged to remove precipitated protein, and the supernatants were analyzed by LC/MS/MS to quantitate the remaining parent. Data were reported as % remaining by dividing by the time zero concentration value.
# Mtb = tested on: Mtb; set-up: method as in PMID 18502817; settings: cited from earlier work
# mammalian cell = settings: cited from earlier work
# [4] = read-out: Mtb MIC (H37Rv), in vitro cultured Mtb H37Rv, lowest concentration inhibiting ≥90% growth, initial hits, quinoxaline di-N-oxides, positive controls
# [5] = in vitro cultured Mtb H37Rv, lowest concentration inhibiting ≥90% growth, initial hits, quinoxaline di-N-oxides, positive controls
# [6] = in vitro cultured Mtb H37Rv, lowest concentration inhibiting ≥90% growth, initial hits, quinoxaline di-N-oxides, positive controls, read-out: Mtb MIC (H37Rv)
# [7] = synthesized BAS 00623753 and arylamide analogs (Table 1)
# [8] = synthesized BAS 00623753 and arylamide analogs (Table 1), read-out: Mtb MIC (H37Rv)
smiles,measurement,setting,value
CC(C)=CCCC(=O)c1c(C)[n+]([O-])c2cc(Cl)c(Cl)cc2[n+]1[O-] [SRI57],CC50 at 72 h,in vitro [1],> 40 µg/mL
same,MIC,Mtb H37Rv strain; [4],1.2 µg/mL
same,Mtb MIC (H37Rv),Mtb H37Rv strain; [5],1.25 µg/mL
COc1ccc2c(c1)[n+]([O-])c(C(=O)c1cccnc1)c(C)[n+]2[O-] [SRI12],CC50 at 72 h,in vitro [1],1.7 µg/mL
same,MIC,Mtb H37Rv strain; [6],0.64 µg/mL
Cc1c(C(=O)C2CC2)[n+]([O-])c2cc(Cl)c(Cl)cc2[n+]1[O-] [SRI58],"Papp A→B at 2 h, 10 μM",in vitro [2],2.3 ×10⁻⁶ cm/s
same,"Papp B→A at 2 h, 10 μM",in vitro [2],0.57 ×10⁻⁶ cm/s
same,"efflux ratio at 2 h, 10 μM",in vitro [2],0.25
same,CC50 at 72 h,in vitro [1],> 40 µg/mL
same,MIC,Mtb H37Rv strain; [4],1.2 µg/mL
same,Mtb MIC (H37Rv),Mtb H37Rv strain; [5],1.25 µg/mL
same,solubility kinetic at 2 h,physchem,125 µM
same,% Compound remaining after 1h in the absence of NADPH,[3],110%
same,% Compound remaining after 1h in the presence of NADPH,[3],63.6%
"CC(=O)c1c(C)[n+]([O-])c2ccccc2[n+]1[O-] [SRI1, 1-(3-methyl-1,4-dioxy-quinoxalin-2-yl)-ethanone]",MIC previously identified,Mtb,3.13 µg/mL
same,Mammalian cell cytotoxicity previously reported,mammalian cell,no appreciable mammalian cell cytotoxicity
same,CC50 at 72 h,in vitro [1],> 40 µg/mL
same,MIC,Mtb H37Rv strain; [6],2.5 µg/mL
CC(=O)c1c(C)[n+]([O-])c2ccc(Cl)cc2[n+]1[O-] [SRI4],CC50 at 72 h,in vitro [1],> 40 µg/mL
same,MIC,Mtb H37Rv strain; [6],5 µg/mL
CC(=O)c1c(C)[n+]([O-])c2cc([N+](=O)[O-])ccc2[n+]1[O-] [SRI5],Mtb MIC (H37Rv),Mtb H37Rv strain; [5],2.5 µg/mL
Cc1c(C(=O)c2cccnc2)[n+]([O-])c2ccc([N+](=O)[O-])cc2[n+]1[O-] [SRI13],Mtb MIC (H37Rv),Mtb H37Rv strain; [5],20 µg/mL
CCC(=O)c1c(CC)[n+]([O-])c2ccc(OC)cc2[n+]1[O-] [SRI41],Mtb MIC (H37Rv),Mtb H37Rv strain; [5],40 µg/mL
CC(C)=CCC/C(C)=C/CCC(=O)c1c(C)[n+]([O-])c2cc(Cl)c(Cl)cc2[n+]1[O-] [SRI56],CC50 at 72 h,in vitro [1],4.5 µg/mL
same,MIC,Mtb H37Rv strain; [6],2.5 µg/mL
COc1ccc2c(c1)[n+]([O-])c(C)c(C(=O)C(F)(F)F)[n+]2[O-] [SRI15],Mtb MIC (H37Rv),Mtb H37Rv strain; [5],10 µg/mL
O=C(NCc1ccccn1)c1ccccc1C(F)(F)F [JSF-2211],Mtb MIC (H37Rv),Mtb H37Rv strain; [7],>50 µg/mL
Cc1ccccc1C(=O)NCc1ccccn1 [JSF-2209],Mtb MIC (H37Rv),Mtb H37Rv strain; [7],>50 µg/mL
CC(C)=CCC/C(C)=C/CCC(=O)c1c(C)[n+]([O-])c2ccc(C)cc2[n+]1[O-] [SRI48],MIC,Mtb H37Rv strain; [6],5 µg/mL
"NNC(=O)c1ccncc1 [isoniazid, reference compound]",MIC,Mtb H37Rv strain; [6],0.0031 to 0.012 µg/mL
Cc1c(C(=O)c2cccnc2)[n+]([O-])c2cc(Cl)c(Cl)cc2[n+]1[O-] [SRI55],CC50 at 72 h,in vitro [1],> 40 µg/mL
same,MIC,Mtb H37Rv strain; [6],2.5 µg/mL
COc1ccc2c(c1)[n+]([O-])c(C)c(C(=O)c1ccccc1)[n+]2[O-] [SRI9],MIC,Mtb H37Rv strain; [6],5 µg/mL
CC(C)=CCCC(=O)c1c(C)[n+]([O-])c2cc(C)ccc2[n+]1[O-] [SRI36],Mtb MIC (H37Rv),Mtb H37Rv strain; [5],10 µg/mL
COc1ccc2c(c1)[n+]([O-])c(C(=O)CC/C=C(\C)CCC=C(C)C)c(C)[n+]2[O-] [SRI47],Mtb MIC (H37Rv),Mtb H37Rv strain; [5],20 µg/mL
CCCCCC(=O)c1c(C)[n+]([O-])c2ccc(Cl)cc2[n+]1[O-] [SRI21],Mtb MIC (H37Rv),Mtb H37Rv strain; [5],10 µg/mL
O=C(NCc1ccc(Cl)cn1)c1ccccc1[N+](=O)[O-] [JSF-2174],Mtb MIC (H37Rv),Mtb H37Rv strain; [7],>50 µg/mL
C=CCCC(=O)c1c(C)[n+]([O-])c2ccc(OC)cc2[n+]1[O-] [SRI44],Mtb MIC (H37Rv),Mtb H37Rv strain; [5],20 µg/mL
CC(C)(NC(=O)c1ccccc1[N+](=O)[O-])c1ncccn1 [JSF-2176],MIC,Mtb H37Rv strain; [8],> 50 µg/mL
CCCCCC(=O)c1c(C)[n+]([O-])c2ccc(OC)cc2[n+]1[O-] [SRI40],Mtb MIC (H37Rv),Mtb H37Rv strain; [5],>40 µg/mL
Cc1ccc2c(c1)[n+]([O-])c(C)c(C(=O)C1CC1)[n+]2[O-] [SRI33],Mtb MIC (H37Rv),Mtb H37Rv strain; [5],5 µg/mL
O=C(NCc1ncccn1)c1ccccc1[N+](=O)[O-] [JSF-2178],MIC,Mtb H37Rv strain; [8],> 50 µg/mL
CCCCC(=O)c1c(C)[n+]([O-])c2ccc(Cl)cc2[n+]1[O-] [SRI17],MIC,Mtb H37Rv strain; [6],2.5 µg/mL
CCCCCC(=O)c1c(C)[n+]([O-])c2cc(Cl)c(Cl)cc2[n+]1[O-] [SRI59],Mtb MIC (H37Rv),Mtb H37Rv strain; [5],2.5 µg/mL
Cc1cccnc1CNC(=O)c1ccccc1[N+](=O)[O-] [JSF-2172],Mtb MIC (H37Rv),Mtb H37Rv strain; [7],>50 µg/mL
O=C(NCc1cnccn1)c1ccccc1[N+](=O)[O-] [JSF-2171],Mtb MIC (H37Rv),Mtb H37Rv strain; [7],>50 µg/mL
O=C(NCc1ccccn1)c1ccccc1F [JSF-2208],Mtb MIC (H37Rv),Mtb H37Rv strain; [7],>50 µg/mL
CCCCC(=O)c1c(C)[n+]([O-])c2cc(C)ccc2[n+]1[O-] [SRI30],MIC,Mtb H37Rv strain; [6],5 µg/mL
Cc1ccc2c(c1)[n+]([O-])c(C)c(C(=O)c1ccccc1)[n+]2[O-] [SRI6],Mtb MIC (H37Rv),Mtb H37Rv strain; [5],>40 µg/mL
COc1ccc2c(c1)[n+]([O-])c(C(C)=O)c(C)[n+]2[O-] [SRI3],Mtb MIC (H37Rv),Mtb H37Rv strain; [5],10 µg/mL
O=C(NCc1ccncn1)c1ccccc1[N+](=O)[O-] [JSF-2177],Mtb MIC (H37Rv),Mtb H37Rv strain; [7],>50 µg/mL
CC(C)=CCC/C(C)=C/CCC(=O)c1c(C)[n+]([O-])c2ccccc2[n+]1[O-] [SRI51],Mtb MIC (H37Rv),Mtb H37Rv strain; [5],5 µg/mL
CCC(=O)c1c(CC)[n+]([O-])c2ccc(Cl)cc2[n+]1[O-] [SRI24],MIC,Mtb H37Rv strain; [6],10 µg/mL
CC(C)=CCC/C(C)=C/CCC(=O)c1c(C)[n+]([O-])c2ccc(Cl)cc2[n+]1[O-] [SRI49],Mtb MIC (H37Rv),Mtb H37Rv strain; [5],5 µg/mL
O=C(NCCc1ccccn1)c1ccccc1[N+](=O)[O-] [JSF-2170],Mtb MIC (H37Rv),Mtb H37Rv strain; [7],>50 µg/mL
CC(C)=CCCC(=O)c1c(C)[n+]([O-])c2cc(Cl)ccc2[n+]1[O-] [SRI29],Mtb MIC (H37Rv),Mtb H37Rv strain; [5],5 µg/mL
Cc1c(C(=O)c2cccnc2)[n+]([O-])c2ccc(Cl)cc2[n+]1[O-] [SRI11],Mtb MIC (H37Rv),Mtb H37Rv strain; [5],10 µg/mL
Cc1c(C(=O)c2ccccc2)[n+]([O-])c2ccc([N+](=O)[O-])cc2[n+]1[O-] [SRI10],MIC,Mtb H37Rv strain; [6],5 µg/mL
C=CCCC(=O)c1c(C)[n+]([O-])c2cc(Cl)ccc2[n+]1[O-] [SRI22],MIC,Mtb H37Rv strain; [6],5 µg/mL
"c1coc(CNCc2c[nH]c3ccccc23)c1 [BAS 7571651, furan-2-ylmethyl-(1H-indol-3-ylmethyl)-amine]",MIC,Mtb H37Rv strain; [6],40 µg/mL
Cc1c(C(=O)CC(C)C)[n+]([O-])c2cc(Cl)c(Cl)cc2[n+]1[O-] [SRI60],Mtb MIC (H37Rv),Mtb H37Rv strain; [5],2.5 µg/mL
COc1ccc2c(c1)[n+]([O-])c(C(=O)CCC=C(C)C)c(C)[n+]2[O-] [SRI45],Mtb MIC (H37Rv),Mtb H37Rv strain; [5],20 µg/mL
O=C(NCc1ccccn1)c1ccccc1[N+](=O)[O-] [JSF-2210],Mtb MIC (H37Rv),Mtb H37Rv strain; [7],>50 µg/mL
CCCCC(=O)c1c(C)[n+]([O-])c2ccc(OC)cc2[n+]1[O-] [SRI39],Mtb MIC (H37Rv),Mtb H37Rv strain; [5],10 µg/mL
